Data published in PMC6801448, “The Antioxidant and Antiproliferative Activities of 1,2,3-Triazolyl-L-Ascorbic Acid Derivatives” (International Journal of Molecular Sciences, 2019).
Where two headings read alike, the source gives them in different places.

Key:
[1] = DPPH radical scavenging assay; type: biochemical
Description: Likewise, L-ASA, the 1,2,3-triazole L-ASA derivatives with free C2-OH and C3-OH groups were expected to be potent antioxidants. Therefore, they were tested as radical scavengers by reaction with the stable free radical 2,2-diphenyl-1-picrylhydrazyl (DPPH^•).
Antioxidant capacity of selected compounds was assessed by 2,2-diphenyl-1-picrylhydrazyl assay (DPPH, Sigma Aldrich, Darmstadt, Germany), in which the antioxidant activity of compounds is measured by the reaction between a stable radical of 1,1-diphenyl-2-picylhydrazil (DPPH^•) and a selected compound according to the manufacturer recommendations. Briefly, compounds 4b–4e, 4f–4h, 4k, 4l, 4o, 4p–4s, 4t, 4v, 7c–7f, 7i–7n, 7q, 7p, and 7o were tested at 0.06, 0.12, 0.18, 0.23, 0.25, and 0.28 mM. L-ascorbic acid was used as the reference compound. Absorbance was measured 5 and 10 min after incubation of the compounds with the DPPH reagent. The reduction of DPPH with selected compounds was monitored by measuring the absorbance at a wavelength of 517 nm on the monochromator (Infinite M200 PRO, TECAN, Männedorf, Switzerland).

[2] = test system: A549 (lung adenocarcinoma); assay: MTT proliferation assay, A549; type: cell-based; details: Homo sapiens, 72 h
Description: (§1) Human tumor cell lines HeLa (cervical carcinoma), SW620 (colorectal adenocarcinoma, metastatic), A549 (lung adenocarcinoma), MCF−7 (breast adenocarcinoma), CFPAC-1 (pancreatic adenocarcinoma, metastatic), HCT-116 (colorectal carcinoma), and HepG2 (hepatocellular carcinoma), and normal cell lines HFF-1 (foreskin fibroblasts) and WI-38 (immortalized human lung fibroblast), were from the US American Type Culture Collection (ATCC, Manassas, VA, USA). Cells were cultured in a liquid nutrient medium (Dulbecco’s Modified Eagle Medium, LONZA, Basel, Switzerland) supplemented with 10% fetal bovine serum (FBS, Gibco, Grand Island, NY, USA), 2 mM L-glutamine (GIBCO, Grand Island, NY, USA), 100 μg/mL penicillin, and 100 μg/mL streptomycin (LONZA, Basel, Switzerland), in an incubator (NÜVE, Ankara, Turkey), at a humid atmosphere with 5% CO2 at 37 °C. Trypsin/EDTA Solution (Lonza, Basel, Switzerland), was used for cell passaging and cell detachment.
(§2) Adherent cells were seeded on 96 well microtiter plates (Falcon, New York, NY, USA) at a seeding density of 5000 cells per well, added in 150 μL of cell suspension in a nutrient medium. 24 h after seeding, cells were treated with compound 4b–4g, 4i, 4k–4t, 4v, 7c–7g, and 7i–7q dilutions in the range of 0.01 μM to 100 μM. L-ascoric acid (Sigma Aldrich, Darmstadt, Germany) and Carboxyamidotriazole (Sigma Aldrich, Darmstadt, Germany) were used as control compounds. Incubation of the cells with the compounds were performed for 72 h in a 5% CO2, in humid atmosphere at 37 °C. After incubation, nutrient medium was removed and 40 μL of the MTT reagent ([…]-2,5-diphenyltetrazole bromide (Invitrogen, Carlsbad, CA, USA) was added to each well. 3 h after incubation, 160 μL of DMSO (VWR CHEMICALS, Radnor, PA, USA) were added to each well to dissolve the crystals of purple formazane. The absorbance was measured at 570 nm (TECAN SUNRISE Microtiter plate reader (Männedorf, Switzerland). The experimentally measured optical densities (OD) were converted to the PG (percentage of growth), using the formulas according to the protocol assumed by NIH (National Institute of Health). The IC50 values (concentration causing 50% cell growth inhibition) for each compound were calculated by regression analysis of the survival count curve of the concentrations of the tested compounds. The results were processed in Excel 2010 (Microsoft, Redmond, WA, USA).

[3] = test system: CFPAC-1 (ductal pancreatic adenocarcinoma); assay: MTT proliferation assay, CFPAC-1; type: cell-based; details: Homo sapiens, 72 h
Description: as §1, §2

[4] = test system: HCT-116 (colorectal carcinoma); assay: MTT proliferation assay, HCT-116; type: cell-based; details: Homo sapiens, 72 h
Description: as §1, §2

[5] = test system: HeLa (cervical carcinoma); assay: MTT proliferation assay, HeLa; type: cell-based; details: Homo sapiens, 72 h
Description: as §1, §2

[6] = test system: HepG2 (hepatocellular carcinoma); assay: MTT proliferation assay, HepG2; type: cell-based; details: Homo sapiens, 72 h
Description: as §1, §2

[7] = test system: MCF-7 (breast adenocarcinoma); assay: MTT proliferation assay, MCF-7; type: cell-based, Human; details: Homo sapiens, MCF7; 72 h, MTT
Description: as §1, §2

[8] = test system: SW620 (colorectal adenocarcinoma, metastatic); assay: MTT proliferation assay, SW620; type: cell-based; details: Homo sapiens, SW-620, 72 h
Description: as §1, §2

WI-38 (lung fibroblasts) = assay: MTT proliferation assay, WI-38; type: cell-based; details: Homo sapiens, 72 h, normal lung fibroblasts
Description: as §1, §2

[9] = 5 min treatment, read-out: IC50 of DPPH• inhibition, Treatm. 5 min
[10] = 10 min treatment, read-out: IC50 of DPPH• inhibition, Treatm. 10 min

SMILES | IC50 [1, 9] | IC50 [1, 10] | IC50 [2] | IC50 [3] | IC50 [4] | IC50 [5] | IC50 [6] | IC50 [7] | IC50 [8] | IC50 (WI-38 (lung fibroblasts)) | melting point
CCCCCCCCCCc1cn(C/C=C2\OC(=O)C(O)=C2O)nn1 [Compound 7n, 6-(4-decyl-1,2,3-triazol-1-il)-4,5-didehydro-5,6-dideoxy-L-ascorbic acid] | 140 µM | 100 µM | > 100 µM | > 100 µM | > 100 µM | > 100 µM | > 100 µM | > 100 µM | > 100 µM | > 100 µM | 169 to 171 °C
O=C1O[C@H]([C@@H](O)Cn2cc(CSC(=S)N3CCNCC3)nn2)C(O)=C1O [Compound 4v] | 270 ± 10 µM | 270 µM | 98 µM | > 100 µM | > 100 µM | > 100 µM | > 100 µM | 37.3 µM | > 100 µM | > 100 µM | ≥ 250 °C
O=C1O/C(=C\Cn2cc(-c3cc(C(F)(F)F)cc(C(F)(F)F)c3)nn2)C(O)=C1O [Compound 7c, 4,5-didehydro-5,6-dideoxy-(4-(3,5-di-(trifluoromethyl)phenyl)-1,2,3-triazol-1-yl)-L-ascorbic acid] |  |  | > 100 µM | > 100 µM | > 100 µM | > 100 µM | > 100 µM | > 100 µM | > 100 µM | > 100 µM | ≥ 200 °C
O=C1O/C(=C\Cn2cc(C3CC3)nn2)C(O)=C1O [Compound 7l, 6-[4-cyclopropyl-1,2,3-triazole-1-yl]-4,5-didehydro-5,6-dideoxy-L-ascorbic acid] | 200 ± 10 µM | 200 µM | > 100 µM | > 100 µM | > 100 µM | > 100 µM | > 100 µM | > 100 µM | > 100 µM | > 100 µM | 176 to 178 °C
O=C1O/C(=C\Cn2cc(CCCCl)nn2)C(O)=C1O [Compound 7p, 6-[4-chloropropyl-1,2,3-triazole-1-yl]-4,5-didehydro-5,6-dideoxy-L-ascorbic acid] | 200 µM | 200 µM | > 100 µM | > 100 µM | > 100 µM | > 100 µM | > 100 µM | > 100 µM | > 100 µM | > 100 µM | 160 to 162 °C
Cc1ccc(-c2cn(C/C=C3\OC(=O)C(O)=C3O)nn2)cc1 [Compound 7f, 6-[4-tolyl-1,2,3-triazole-1-yl]-4,5-didehydro-5,6-dideoxy-L-ascorbic acid] | 100 ± 20 µM | 100 ± 20 µM | > 100 µM | > 100 µM | > 100 µM | > 100 µM | > 100 µM | > 100 µM | > 100 µM | > 100 µM | 188 to 192 °C
O=C1O/C(=C\Cn2cc(CCO)nn2)C(O)=C1O [Compound 7q, 6-[4-(2-hydroxyethyl)-1,2,3-triazole-1-yl]-4,5-didehydro-5,6-dideoxy-L-ascorbic cid] | 70 µM | 70 µM | > 100 µM | > 100 µM | > 100 µM | > 100 µM | > 100 µM | > 100 µM | > 100 µM | > 100 µM | 172 to 173 °C
O=C1O/C(=C\Cn2cc(-c3ccc(Br)cc3)nn2)C(O)=C1O [Compound 7e, 6-[4-(4-bromophenyl)-1,2,3-triazole-1-yl]-4,5-didehydro-5,6-dideoxy-L-ascorbic acid] |  |  | > 100 µM | > 100 µM | > 100 µM | > 100 µM | > 100 µM | > 100 µM | > 100 µM | > 100 µM | 219 to 222 °C
O=C1O/C(=C\Cn2cc(-c3cccc(O)c3)nn2)C(O)=C1O [Compound 7j, 4,5-didehydro-5,6-dideoxy-6-[4-(3-hydroxyphenyl)-1,2,3-triazole-1-yl]-L-ascorbic acid] |  |  | > 100 µM | > 100 µM | > 100 µM | > 100 µM | > 100 µM | > 100 µM | > 100 µM | > 100 µM | 155 to 157 °C
O=c1[nH]cc(F)c(=O)[nH]1 [Compound 5-FU, 5-fluorouracil, reference compound] |  |  | 2.8 µM | 0.14 µM |  | 8.81 µM | 9.04 µM | 0.096 µM | 0.08 µM | 0.94 µM | 
COc1ccc(-c2cn(C/C=C3\OC(=O)C(O)=C3O)nn2)cc1 [Compound 7g, 4,5-didehydro-5,6-dideoxy-6-[4-(4-methoxyphenyl)-1,2,3-triazole-1-yl]-L-ascorbic acid] | > 280 µM | 260 µM | > 100 µM | > 100 µM | > 100 µM | > 100 µM | > 100 µM | > 100 µM | > 100 µM | > 100 µM | 198 to 199 °C
CCCCc1cn(C/C=C2\OC(=O)C(O)=C2O)nn1 [Compound 7m, 6-[4-butyl-1,2,3-triazole-1-yl]-4,5-didehydro-5,6-dideoxy-L-ascorbic acid] | 200 µM | 190 µM | > 100 µM | > 100 µM | > 100 µM | > 100 µM | > 100 µM | > 100 µM | > 100 µM | > 100 µM | 180 to 183 °C
CC(C)(C)c1cn(C/C=C2\OC(=O)C(O)=C2O)nn1 [Compound 7o, 6-[4-tert-butyl-1,2,3-triazole-1-yl]-4,5-didehydro-5,6-dideoxy-L-ascorbic acid] | 200 µM | 200 µM | > 100 µM | > 100 µM | > 100 µM | > 100 µM | > 100 µM | > 100 µM | > 100 µM | > 100 µM | 182 to 184 °C
O=C1O/C(=C\Cn2cc(-c3ccccc3O)nn2)C(O)=C1O [Compound 7i, 4,5-didehydro-5,6-dideoxy-6-[4-(2-hydroxyphenyl)-1,2,3-triazole-1-yl]-L-ascorbic acid] | 100 ± 50 µM | 100 ± 40 µM | > 100 µM | > 100 µM | > 100 µM | > 100 µM | > 100 µM | > 100 µM | > 100 µM | > 100 µM | 167 to 169 °C
CCCCCc1ccc(-c2cn(C/C=C3\OC(=O)C(O)=C3O)nn2)cc1 [Compound 7k, 4,5-didehydro-5,6-dideoxy-6-[4-(4-pentylphenyl)-1,2,3-triazole-1-yl]-L-ascorbic acid] |  |  | > 100 µM | > 100 µM | > 100 µM | > 100 µM | > 100 µM | > 100 µM | > 100 µM | > 100 µM | 230 to 232 °C
